According to publication PMC5517430, “2,3,7,8-Tetrachlorodibenzo-p-dioxin (TCDD)-elicited effects on bile acid homeostasis: Alterations in biosynthesis, enterohepatic circulation, and microbial metabolism” (Scientific Reports, 2017):
Several values for one entry are separate records, joined by “and”; a condition that tells them apart may be missing. Identical values can stand only once.

Experiments:
bile acids = assay: HRAM-LC-MS analysis of bile acids in liver, serum and feces; type: in vivo, mouse; settings: male mice
Experimental: Serum (10 µL) was added to 10 µL of a 20 ng/µL stock solution of deuterated (d4) glycochenodeoxycholic acid (GCDCA, from Steraloids, Inc.) in methanol, and extracted with ice-cold methanol as previously described. Frozen liver samples (50 mg) or dried fecal pellets (50 mg) were combined with 10 µL of 20 ng/µL d4-GCDCA stock solution and 1.0 mL of ice-cold methanol, and homogenized with 0.5 mm zirconium oxide beads using an air-cooled Bullet Blender (NextAdvance). Extracts were dried under vacuum, reconstituted in 2.0 mL of 50% methanol, filtered through 0.2 µm nylon membranes (Pall Life Sciences), and stored at −80 °C.
Bile acids were analyzed by high resolution/accurate mass (HRAM)-LC-MS using an Agilent 1260 capillary HPLC coupled to a Thermo Scientific LTQ-Orbitrap Velos mass spectrometer. Extracts (2 µL) were injected into water containing 0.1% formic acid, and loaded onto an inline peptide Opti-Trap (Optimize Technologies) for 3.0 min at 5 µL/min for desalting and concentration. Bile acids were then eluted by a 30 min water/acetonitrile gradient from 98% water containing 0.1% formic acid to 95% acetonitrile containing 0.1% formic acid (modified from ref. [73]) and separated by a ProntoSil C18AQ 200 µm × 50 mm, 3 u column (nanoLCMS Solutions) at a flow rate of 2 µL/min. The column eluent was introduced to the LTQ-Orbitrap Velos mass spectrometer by an Advance nano-ESI source (Michrom BioResources) at a spray voltage of −1.7 kV. High resolution (R = 100,000 at 400 m/z) negative ion mass spectra were collected over 300–900 m/z. The ion transfer tube of the mass spectrometer was maintained at 250 °C, and the S-lens was set to 50%. Appropriate sample dilution factors were determined empirically to ensure a linear range of detector response. Chromatographic peak alignment, feature detection, quantitation and bile acid identification were performed using MAVEN[75] and SECD-LIMSA[76] software. All bile acids were identified by comparison of retention time and accurate mass data against reference standards. Relative quantitation was performed against the deuterated GCDCA internal standard. TCDD-elicited changes in bile acid species are reported as fold changes relative to vehicle controls.

AhR = assay: Hepatic AhR ChIP-Seq (AhR genomic enrichment); type: in vivo, mouse
Experimental: Putative dioxin response elements (pDREs) with matrix similarity scores (MSS) ≥ 0.856 were previously identified. ChIP-Seq was previously performed on liver samples from male C57BL/6 mice 2 h after a single bolus oral gavage of 30 µg/kg TCDD[33], [70]. Briefly, cross-linked DNA was immunoprecipitated with either rabbit IgG or anti-AhR (H-211, sc-5579; Santa Cruz, CA). Libraries were prepared using the MicroPlex kit (Diagenode), pooled, and sequenced at a depth of a ~30 M on an Illumina HiSeq 2500 at the MSU RTSF Genomics Core. Reads were mapped to the mouse reference genome (GRCm38 release 81) using Bowtie 2.0.0 and alignments converted to SAM format using SAMTools v0.1.2. Normalization and peak calling was performed using CisGenome[71], by comparing IgG control and AhR enriched samples (n = 5) using a bin size (−b) of 25 and boundary refinement resolution (−bw) of 1 with default parameters.

[1] = liver, 10 µg/kg TCDD every 4 d for 28 d, relative to vehicle
[2] = liver, 30 µg/kg TCDD every 4 d for 28 d, relative to vehicle
[3] = liver, dose not stated, 3–30 µg/kg TCDD
[4] = liver, dose-dependent, 3–30 µg/kg TCDD
[5] = serum, 30 µg/kg TCDD every 4 d for 28 d, relative to vehicle
[6] = male mouse liver, 2 h after single oral gavage of 30 µg/kg TCDD

Clc1cc2c(cc1Cl)Oc1cc(Cl)c(Cl)cc1O2 [TCDD, 2,3,7,8-tetrachlorodibenzo-p-dioxin]
Deoxycholic acid disulfate DCA-di-SO4, Fold Change FECES (bile acids; feces, 30 µg/kg TCDD, relative to vehicle, n = 2 cages): 4.9 fold
Taurolithocholic acid TLCA, Fold Change FECES (bile acids; feces, 30 µg/kg TCDD, relative to vehicle, n = 2 cages, ∞ = detected in treated animals but not controls): undetectable in controls to detectable in treated mice
Fecal cholic acid 7-sulfate (CA-7-SO4), fold decrease (bile acids; feces, 30 µg/kg TCDD): 55.2 fold
Fecal taurocholic acid 3-sulfate (TCA-3-SO4), fold decrease (bile acids; feces, 30 µg/kg TCDD): 10.3 fold
Fecal α-MCA, fold decrease (bile acids; feces, 30 µg/kg TCDD): 10.3 fold
Total fecal bile acids, fold decrease (bile acids; feces, 30 µg/kg TCDD): 2.8 fold
Taurolithocholic acid TLCA, Fold Change LIVER (bile acids; [1]): 72.1 fold
Total Bile Acids, Fold Change LIVER (bile acids; [1]): 2.1 fold
Cholic acid CA, Fold Change LIVER (bile acids; [2]): 4.7 fold
Taurolithocholic acid TLCA, Fold Change LIVER (bile acids; [2]): > 200 fold and 233.8 fold
Total Bile Acids, Fold Change LIVER (bile acids; [2]): 4.6 fold
Effect on hepatic CDCA (bile acids; liver, 3–30 µg/kg TCDD): no effect
Effect on hepatic α/β-MCA (bile acids; liver, 3–30 µg/kg TCDD): no effect
Hepatic glycocholic acid (GCA), fold increase (bile acids; [3]): 3.9 fold
Hepatic tauro-α-muricholic acid (T-α-MCA), fold increase (bile acids; [3]): 3.7 fold
Hepatic taurocholic acid (TCA), fold increase (bile acids; [3]): 9.7 fold
Total hepatic conjugated primary bile acid levels, max fold increase (bile acids; [4]): 4.7 fold
Total hepatic levels of conjugated secondary bile acids, max fold increase (bile acids; [4]): 77.7 fold
Cholic acid CA, Fold Change SERUM (bile acids; [5]): 58.2 fold
Deoxycholic acid DCA, Fold Change SERUM (bile acids; [5]): 79.7 fold
Glycocholic acid GCA, Fold Change SERUM (bile acids; [5]): 134.4 fold
Muricholic acid (α) α-MCA, Fold Change SERUM (bile acids; [5]): 97.0 fold
Muricholic acid (β) β-MCA, Fold Change SERUM (bile acids; [5]): 52.8 fold
Taurocholic acid TCA, Fold Change SERUM (bile acids; [5]): 298.9 fold
Total Bile Acids, Fold Change SERUM (bile acids; [5]): 45.4 fold
Slc6a6 (TAUT) AhR Binding? (AhR; liver): YES
Slc10a1 (NTCP or LBAT) AhR Binding? (AhR; liver): YES
Slco2b1 (OATP2B1) AhR Binding? (AhR; liver): YES
Soat1 AhR Binding? (AhR; liver): YES
Soat2 AhR Binding? (AhR; liver): YES
Sqle AhR Binding? (AhR; liver): YES
Srebf2 AhR Binding? (AhR; liver): YES
Tm7sf2 AhR Binding? (AhR; liver): YES
AhR binding within Cyp8b1, fold enrichment (AhR; [6]): 2.2 fold
AhR genomic binding at Cyp7a1, fold enrichment (AhR; [6]): 2.3 fold
AhR genomic binding at the Hmgcr loci, fold increase (AhR; [6]): 10.3 fold
